According to ChEMBL document CHEMBL5352438, “Discovery of Pyrrolo[2,3-d]pyrimidine derivatives as potent and selective colony stimulating factor 1 receptor kinase inhibitors” (Eur J Med Chem, 2022):

Assays:
[1] = in vivo; conditions: Sprague-Dawley, rat, iv, 1 mg/kg
[2] = in vivo; conditions: Sprague-Dawley, rat, po, 10 mg/kg
[3] = in vivo; conditions: Sprague-Dawley, rat, iv, 1 mg/kg; remark: listed apart in the source
[4] = in vivo; conditions: Sprague-Dawley, rat, po, 10 mg/kg; remark: listed apart in the source
[5] = in vivo; conditions: Sprague-Dawley, rat, iv, 1 mg/kg; remark: listed apart in the source
[6] = in vivo; conditions: Sprague-Dawley, rat, iv, 1 mg/kg; remark: listed apart in the source
[7] = in vivo; conditions: Sprague-Dawley, rat, po, 10 mg/kg; remark: listed apart in the source
[8] = in vivo; conditions: Sprague-Dawley, rat, po, 10 mg/kg; remark: listed apart in the source

For `Cn1ccc2c(Oc3ccc(NC(=O)Cc4ccc(C(F)(F)F)c(F)c4)cc3)ncnc21`, which Cmax at 12 h [1] is on record?
Its Cmax at 12 h is 1430 ng/mL.

What about the Cmax at 12 h [2] of the same compound?
Its Cmax at 12 h is 1190 ng/mL.

And the AUC(0-inf) at 12 h [3]?
The AUC(0-inf) at 12 h was 1310 ng·h/mL.

What about the AUC(0-inf) at 12 h [4] of the same compound?
The AUC(0-inf) at 12 h was 14600 ng·h/mL.

And the Vd at 12 h [5]?
Its Vd at 12 h is 1.55 L/kg.

What about the clearance at 12 h [6] of the same compound?
Its clearance at 12 h is 13.3 mL/min/kg.

What about the CL/F at 12 h [7] of the same compound?
The CL/F at 12 h was 11.6 mL/min/kg.

What about the bioavailability at 12 h [8] of the same compound?
Its bioavailability at 12 h is 111%.
